According to US7425556B2 (priority 2005, dated 2008):
pKi: −log10 of the molar value.

Experiments:
[1] = molecular target: T1, GABAA2 receptors (α2, β3, γ2 receptor subunits) (Homo sapiens, UniProt P18507+P47869); test: biochemical; details: [3H]-Flunitrazepam ~2 nM, α2β3γ2 Sf9 membranes, 1 hr at 4° C.; read-out: GABAA2 Binding Ki
T1 construct: host or cells: Sf9 cells (membranes)
Procedure: In some embodiments, the binding test was directed to a subtype of GABAA receptors, such as GABAA1 receptors (i.e., those containing the α1 subunit), GABAA2 receptors (i.e., those containing the α2 subunit), GABAA3 receptors (i.e., those containing the α3 subunit) and GABAA5 receptors (i.e., those containing the α5 subunit).
[formula] Method FF GABAA2 Binding Method Reagents
Assay and Wash Buffer: 50 mM Tris-Citrate, 200 mM NaCl, pH 7.8
Compounds at 10 mM in DMSO: Put 75 μl in column 1 of compound plate.
Flumazenil, 10 mM (for NSB)
[^3H]-Flunitrazepam (Cat #NET567): Prepare 10× stock=20 nM, [F} in assay=˜2 nM
1. […] Add 5 ul of 30 uM flumazenil to wells 12 D-E for 50% control wells.
2. Spot 2 μl of compound dilutions into dry plate (Automation Program 3). Manually spot 2 μl 10 mM flumazenil into wells 12 F-H for nonspecific control.
3. Make 1:100 dilution in assay buffer (2 μl into 200 μl) and dispense 25 μl compound into assay plates (Automation Program 4).
4. Dispense 200 μl membranes into assay plate (Automation Program 5).
5. Add 25 μl [^3H]-Flunitrazepam (Automation Program 6). Incubate for 1 hr at 4° C.
6. Collect membranes on a cell harvester onto GF/B filter plates (pre-wet with dH2O and wash 5×400 μl/well, with cold assay buffer. (First 3 washes are considered hot; last two are cold.)
7. Dry plates for 2-3 hours at RT.
8. Add 40 μl Microsecond 40/well (Automation Program 7); seal plates. Count on a Top Count.
Data is analyzed by calculating percent of control, IC50, and Kid in an Lift template. The following formula is used in the templates: […]

[2] = molecular target: T2, GABAA1 (human α1β2γ2 GABAA receptor) (Homo sapiens, UniProt P14867+P18507); test: Two-electrode voltage-clamp in Xenopus oocytes, potentiation of GABA EC10 current, GABAA1; format: cell-based; details: percentage potentiation of GABA EC10 current divided by that of diazepam
T2 construct: expressed in transfected cells; host or cells: Xenopus laevis oocytes injected with capped cRNA
Text: (§1) Presently available GABAA modulator anxiolytics work via interactions at the classical benzodiazepine binding site. To a large degree these anxiolytics lack GABAA receptor subtype-selectivity. The subtype-selective GABAA receptor modulators may offer more advantages. […] Sedation, a side-effect common to all marketed benzodiazepines, is believed to be mediated by interactions at GABAARs containing the α1 subunit. To develop anxiolytics with minimal liabilities due to interactions with other subunits, an electrophysiological assay was developed to screen modulatory effects of various compounds on different GABA subunit combinations heterologously expressed in Xenopus oocytes.
(§2) GABAA receptors were heterologously expressed in Xenopus oocytes by injecting cRNA corresponding to human α1, α2, α3, α5, β2, β3 and γ2 subunits of the GABAA receptor genes. The specific subunit combinations (subtypes) were as follows: α1β2γ2, α2β3γ2, α3β3γ2, and α5β3γ2. The EC10 of GABA was approximated for each cell. Stability of GABA-mediated (EC10) current was established. Modulatory effect of test compound was determined and compared across subtypes. […] Thus, the assay can characterize modulatory effects and determine subtype selectivity of test compounds on major subtypes of GABAA receptors.
(§3) Xenopus laevis frogs (Xenopus I, Kalamazoo, MI) were anesthetized using 0. […] Surgically removed ovarian lobes were teased out in OR2 solution (82 NaCl, 2.5 KCl, 5 HEPES, 1.5 NaH2PO4, 1 MgCl2, 0.1 EDTA, in mM, pH 7.4). The acolytes were deflocculated by incubation in 25 mL OR2 containing 0.2% collagens 1A (SIGMA) two times for about 60 minutes on a platform shaker and stored in Leibovitz's L-15 medium. Acolytes were injected the following day in 0.5× Leibovitz's L-15 medium containing […] gentamycin, 10 units/ml penicillin, and […] streptomycin.
(§4) Capped cRNAs from the linear zed vectors containing human α1, β2 and γ2 subunits of the GABAA receptor genes were mixed in ratio of […]. Acolytes were injected with 25-50 nL of mixed RNA with an appx molar ratio for α1, β2 and γ2 as 1:1:10. Acolyte recordings were done 2-10 days after injection. The same methods apply to subtypes derived from α2β3γ2, α3β3γ2, and α5β3γ2, except for 1:1:1 ratio was used for α, β, and γ subunits.
(§5) All measurements were done in a medium containing ND-96 (96 NaCl, 2 KCl, 1.8 CaCl2.2H2O, 1 MgCl2.6H2O, 5 HEPES, in mM, pH 7.5). Two-electrode voltage-clamp recording was carried out using Opus press amplifier (Axon Instruments, Foster City, Calif.), which allows simultaneous recording from 8 acolytes. Acolytes were impaled with two electrodes of 1-2 MΩ tip resistance when filled with 3M KCl. Recordings were begun when membrane potential became stable at potentials negative to −50-−60 mV. Membrane potential was held at −60 mV. […] The concentration of GABA corresponded to the EC10 value calculated for each acolyte. The modulator pulses started 30 s before the GABA pulse so as to allow preoccupation with the modulator. A set of 3 pulses with just GABA without modulator was given prior to the modulator-containing pulses to define the baseline GABA response. Two acolytes per each experiment were dedicated to observe the effect of diazepam on GABA response to ensure the presence of γ subunit in the GABAA pantomimic complex, which imparts diazepam sensitivity to the complex.
(§6) Current amplitude (i) was measured from baseline to peak using Clamp fit (Axon Inst., Foster City, Calif.). Potentiating was calculated as percent change from the baseline GABA current flux 100×(imod/icontrol)−1) where imod=current mediated by modulator+GABA and icontrol=current mediated by GABA alone. […] Similarly, a value of −50% potentiating means the presence of modulator caused a 50% decrease in the control current.

[3] = molecular target: T3, GABAA2 (human α2β3γ2 GABAA receptor) (Homo sapiens, UniProt P18507+P47869); test: Two-electrode voltage-clamp in Xenopus oocytes, potentiation of GABA EC10 current, GABAA2; format: cell-based; details: percentage potentiation of GABA EC10 current divided by that of diazepam
T3 construct: expressed in transfected cells; host or cells: Xenopus laevis oocytes injected with capped cRNA
Text: as §1, §2, §3, §4, §5, §6

T2 sequence (P14867 28-456): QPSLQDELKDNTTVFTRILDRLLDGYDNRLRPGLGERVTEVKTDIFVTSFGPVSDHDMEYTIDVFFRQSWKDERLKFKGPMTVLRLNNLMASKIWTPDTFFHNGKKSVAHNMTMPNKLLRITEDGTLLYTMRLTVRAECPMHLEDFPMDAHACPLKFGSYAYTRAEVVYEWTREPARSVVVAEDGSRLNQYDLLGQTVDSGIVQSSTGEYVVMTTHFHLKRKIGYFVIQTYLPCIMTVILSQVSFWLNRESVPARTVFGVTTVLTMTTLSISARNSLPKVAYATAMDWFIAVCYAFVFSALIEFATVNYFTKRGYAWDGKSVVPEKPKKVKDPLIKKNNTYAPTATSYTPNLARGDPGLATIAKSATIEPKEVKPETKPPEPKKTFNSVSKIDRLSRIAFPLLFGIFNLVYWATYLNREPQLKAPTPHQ
T2 sequence (P47870 25-512 partner limits assumed): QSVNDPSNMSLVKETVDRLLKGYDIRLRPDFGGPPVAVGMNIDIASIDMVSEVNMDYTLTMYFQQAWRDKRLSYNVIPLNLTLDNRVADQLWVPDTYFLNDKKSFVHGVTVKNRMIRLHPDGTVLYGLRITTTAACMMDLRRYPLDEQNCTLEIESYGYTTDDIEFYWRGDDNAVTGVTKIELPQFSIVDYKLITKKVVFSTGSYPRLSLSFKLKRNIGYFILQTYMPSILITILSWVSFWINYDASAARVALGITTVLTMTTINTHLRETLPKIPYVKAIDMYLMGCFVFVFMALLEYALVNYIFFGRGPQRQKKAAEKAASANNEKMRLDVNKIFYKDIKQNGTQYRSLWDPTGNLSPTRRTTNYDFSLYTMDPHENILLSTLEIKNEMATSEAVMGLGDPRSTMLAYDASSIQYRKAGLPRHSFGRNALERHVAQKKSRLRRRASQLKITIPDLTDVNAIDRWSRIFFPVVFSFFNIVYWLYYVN
T2 sequence (P18507 40-475): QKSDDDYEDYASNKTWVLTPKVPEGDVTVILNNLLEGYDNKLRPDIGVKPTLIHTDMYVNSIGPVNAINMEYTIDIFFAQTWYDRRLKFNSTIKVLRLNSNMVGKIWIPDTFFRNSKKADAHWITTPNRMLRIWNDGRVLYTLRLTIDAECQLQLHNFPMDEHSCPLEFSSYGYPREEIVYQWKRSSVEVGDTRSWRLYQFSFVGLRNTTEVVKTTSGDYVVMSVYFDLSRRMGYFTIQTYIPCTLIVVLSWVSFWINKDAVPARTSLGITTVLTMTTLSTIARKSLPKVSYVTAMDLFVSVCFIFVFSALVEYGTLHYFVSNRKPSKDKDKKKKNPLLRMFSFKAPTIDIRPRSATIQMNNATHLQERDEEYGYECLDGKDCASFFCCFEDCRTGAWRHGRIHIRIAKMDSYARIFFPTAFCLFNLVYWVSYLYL
T3 sequence (P47869 29-451): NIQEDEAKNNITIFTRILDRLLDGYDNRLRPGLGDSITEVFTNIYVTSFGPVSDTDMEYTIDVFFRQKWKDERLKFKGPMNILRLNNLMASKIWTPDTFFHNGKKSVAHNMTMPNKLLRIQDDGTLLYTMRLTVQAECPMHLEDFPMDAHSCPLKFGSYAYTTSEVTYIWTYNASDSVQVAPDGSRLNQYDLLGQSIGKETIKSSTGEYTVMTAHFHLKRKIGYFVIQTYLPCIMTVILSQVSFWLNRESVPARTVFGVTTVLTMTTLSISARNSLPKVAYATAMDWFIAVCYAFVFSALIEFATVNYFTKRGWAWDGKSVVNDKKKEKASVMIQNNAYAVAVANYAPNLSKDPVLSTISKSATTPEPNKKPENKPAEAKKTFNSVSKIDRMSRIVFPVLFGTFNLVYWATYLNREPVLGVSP
T3 sequence (P28472 26-473 partner): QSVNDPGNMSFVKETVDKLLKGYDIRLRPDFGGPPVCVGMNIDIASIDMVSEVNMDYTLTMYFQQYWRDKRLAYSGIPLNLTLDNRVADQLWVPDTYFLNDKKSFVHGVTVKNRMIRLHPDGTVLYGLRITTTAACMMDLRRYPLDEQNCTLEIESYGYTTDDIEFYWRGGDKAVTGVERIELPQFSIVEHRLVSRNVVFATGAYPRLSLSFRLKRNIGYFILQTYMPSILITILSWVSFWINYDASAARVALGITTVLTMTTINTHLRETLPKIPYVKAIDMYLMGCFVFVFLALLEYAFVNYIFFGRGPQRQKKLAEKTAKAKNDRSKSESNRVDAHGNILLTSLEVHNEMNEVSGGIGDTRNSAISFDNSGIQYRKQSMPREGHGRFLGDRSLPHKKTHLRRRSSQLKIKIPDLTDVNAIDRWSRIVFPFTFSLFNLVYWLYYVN
T3 sequence (P18507 40-475): as the sequence (P18507 40-475) above
T1 sequence (P47869 29-451): as the sequence (P47869 29-451) above
T1 sequence (P28472 26-473 partner): as the sequence (P28472 26-473 partner) above
T1 sequence (P18507 40-475): as the sequence (P18507 40-475) above

Row | SMILES | pKi [1] | Relative Potentiation for GABAA1 [2] | Relative Potentiation for GABAA2 [3]
1 | CCCNC(=O)c1nnc2c(-c3cnccc3OC)c(Cl)ccc2c1N | 9.30 | 0.15 | 0.14
2 | CCCNC(=O)c1nnc2c(-c3cccc(F)c3F)cccc2c1N | 9.25 | −0.11 | 0.17
3 | CCCNC(=O)c1nnc2c(-c3ccc(OC)nc3OC)cccc2c1N | 9.25 | 0.17 | 0.25
4 | CCCNC(=O)c1nnc2c(-c3ccc(OC)cc3)cccc2c1N | 7.81 | −0.11 | 0.06
5 | CCCNC(=O)c1nnc2c(-c3ccc(C)c(C)c3)cccc2c1N | 7.77 | 0.23 | 0.35
6 | CCCNC(=O)c1nnc2c(-c3ccc(OC)c(C)c3)cccc2c1N | 7.75 | 0.21 | 0.27
7 | CCCNC(=O)c1nnc2c(-c3ccsc3)cccc2c1N | 7.73 | −0.26 | 0.038
8 | Nc1c(C(=O)NCC2CC2)nnc2c(-c3ccccc3)cccc12 | 7.73 | 0.11 | 0.24
9 | CCCNC(=O)c1nnc2c(-c3ccccn3)cccc2c1N | 7.71 | 0.027 | −0.032
10 | CCCNC(=O)c1nnc2c(-c3cnc(OC)nc3)cccc2c1N | 7.71 | −0.066 | 0.11
11 | CCCNC(=O)c1nnc2c(-c3ccc(F)c(F)c3)cccc2c1N | 7.70 | −0.14 | 0.12
12 | CCCNC(=O)c1nnc2c(-c3ccc(OC)c(F)c3)cccc2c1N | 7.69 | 0.03 | 0.19
13 | CCCNC(=O)c1nnc2c(-c3cnccn3)cccc2c1N | 7.69 | −0.067 | −0.01
14 | CCCNC(=O)c1nnc2c(-c3cc(Cl)cc(Cl)c3)cccc2c1N | 7.66 | 0.28 | 0.48
15 | CCCNC(=O)c1nnc2c(-c3cnc(OC)c(F)c3)cccc2c1N | 7.66 | −0.012 | 0.14
16 | CCCNC(=O)c1nnc2c(-c3cnc(OC)c(Cl)c3)cccc2c1N | 7.60 | 0.086 | 0.04
17 | CCCNC(=O)c1nnc2c(-c3ccc(N(C)C)cc3)cccc2c1N | 7.58 | 0.07 | 0.18
18 | CCCNC(=O)c1nnc2c(-c3ccc(C)cc3)cccc2c1N | 7.54 | 0.013 | 0.11
19 | CCCNC(=O)c1nnc2c(-c3ccc4[nH]ccc4c3)cccc2c1N | 7.46 | 0.15 | 0.16
20 | CNC(=O)c1nnc2c(-c3cc(C)ccc3OC)cccc2c1N | 7.45 | 0.19 | 0.43
21 | CCCNC(=O)c1nnc2c(-c3cc(C)c(OC)c(C)c3)cccc2c1N | 7.45 | 0.79 | 0.32
22 | CCCNC(=O)c1nnc2c(-c3ccc4ccccc4c3)cccc2c1N | 7.36 | 0.22 | 0.09
23 | CCCNC(=O)c1nnc2c(-c3cc(F)ccc3F)c(F)ccc2c1N | 7.34 | 0.013 | 0.098
24 | CCCNC(=O)c1nnc2c(-c3cccc(OC(F)(F)F)c3)cccc2c1N | 7.32 | 0.87 | 0.48
25 | CCCNC(=O)c1nnc2c(-c3cccc(C(=O)O)c3)cccc2c1N | 7.27 | −0.038 | 0.08
26 | CCCNC(=O)c1nnc2c(-c3cc(OC)c(OC)c(OC)c3)cccc2c1N | 7.25 | 0.4 | 0.67
27 | CCCNC(=O)c1nnc2c(-c3ccccc3)c(OC)ccc2c1N | 7.04 | 0.12 | 0.08
28 | CCCNC(=O)c1nnc2c(-c3ccc(F)c(-c4ccc(F)cc4C#N)c3)cccc2c1N | 6.82 | 0.09 | 0.023
29 | CCCNC(=O)c1nnc2c(-c3cc(C(F)(F)F)cc(C(F)(F)F)c3)cccc2c1N | 6.45 | 0.44 | 0.13
